Source: patent US7452688B2, “Transformed cell with enhanced sensitivity to antifungal compound and use thereof” (Sumitomo Chemical Company, Limited, priority 2002, dated 2008)

Columns and labels:
[1] = tested on: transformed budding yeast TM182-StOS1; assay: Antifungal compound sensitivity test of transformed budding yeast TM182-StOS1 (Example 16); type: cell-based, Saccharomyces cerevisiae; details: for Degree of growth of budding yeast TM182-StOS1 Gal-Ura-Leu medium: control medium, 30° C. 49.5 hours; for Degree of growth of budding yeast TM182-StOS1 Gul-Ura-Leu medium: 30° C. 26.5 hours
Procedure: Similarly, the transformed budding yeast TM182-StOS1 prepared in Example 15 was cultured at 30° C. for 18 hours in a Glu-Ura-Leu medium. The absorbance at 600 nm of the grown transformed budding yeast in a cell suspension was measured, and a cell suspension diluted with sterilized distilled water to the absorbance of 0.1 was prepared. Further, a cell suspension in which the transformed budding yeast TM182-StOS1 was diluted 50-fold with a Glu-Ura-Leu medium and, as a control, a cell suspension in which the yeast was diluted 50-fold with a Gal-Ura-Leu medium were prepared.
A solution in which each of Compounds (1) to (3) was dissolved in dimethylsulfoxide (DMSO) to the concentration of 6 ppm, a solution in which each of Compounds (4) and (5) was dissolved in dimethylsulfoxide (DMSO) to the concentration of 2000 ppm, and a solution in which each of Compounds (6) and (7) was dissolved in dimethylsulfoxide (DMSO) to the concentration of 20 ppm were prepared, and two microplates were prepared in which each 2.0 μL per well of the Compound-DMSO solution and DMSO as a control were dispensed into 2 wells. In one microplate among them, each 100 μL of cell suspensions of the transformed budding yeast TM182-StOS1 which had been prepared by dilution with a Glu-Ura-Leu medium as described above was dispensed, and cultured by allowing to stand at 30° C. for 26.5 hours. In another microplate, as described above, as a control, each 100 μL of cell suspensions of the transformed budding yeast TM182-StOS1 which had been prepared by dilution with a Gal-Ura-Leu medium was dispensed, and cultured at 30° C. for 49.5 hours. After culturing, the absorbance at 600 nm of each well was measured with a microplate reader.
A degree of growth of the transformed budding yeast is expressed as a relative value in percentage, letting the absorbance at 600 nm at the concentration of the Compound of 0 ppm to be 100. It was confirmed that an inhibiting degree of growth of the transformed budding yeast TM182-StOS1 by each test substance was grater than an inhibiting degree of growth of the transformed budding yeast AH22-StOS1 by each test substance, and the transformed budding yeast TM182-StOS1 was a transformed cell with the enhanced sensitivity to an antifungal compound as compared with the transformed budding yeast AH22-StOS1.

[2] = tested on: transformed budding yeast AH22-HIK1; assay: Antifungal compound sensitivity test, transformed budding yeast AH22-HIK1 (Example 9); type: cell-based, Saccharomyces cerevisiae; details: 30° C. 23 hours
Procedure: The transformed budding yeast AH22-HIK1 prepared in Example 8 was cultured while shaking at 30° C. for 24 hours in a Glu-Leu medium. As a control, the AH22 strain was similarly cultured while shaking at 30° C. for 24 hours in a Glu medium. The absorbance at 600 nm of a cell suspension of each of the grown transformed budding yeasts was measured, and a cell suspension diluted with each medium to the absorbance of 0.1 was prepared. Further, a cell suspension in which the aforementioned cell suspension of the transformed budding yeast AH22-HIK1 was diluted 50-fold with a Glu-Leu medium, and a cell suspension in which the aforementioned cell suspension of AH22 strain was diluted 50-fold with a Glu medium were prepared. A suspension in which each of compounds (1) to (3) was dissolved in dimethylsulfoxide (DMSO) to the concentration of 200 ppm, a solution in which each of Compounds (4) to (5) was dissolved in dimethylsulfoxide (DMSO) to the concentration of 600 ppm, and a solution in which each of Compounds (6) and (7) was dissolved in dimethylsulfoxide (DMSO) to the concentration of 20 ppm were prepared, and two microplates were prepared in which each 1.0 μL per well of the Compound solution and DMSO as a control were dispensed into two wells. In one microplate among them, each 100 μL of a cell suspension of the transformed budding yeast AH22-hiki which had been prepared by dilution as described above was dispensed, and cultured by allowing to stand at 30° C. for 23 hours. In another microplate, each 100 μL of the cell suspensions of control yeast AH22 strain which had been prepared by dilution as described above was dispensed, and cultured by allowing to stand at 30° C. for 27 hours. After culturing, the absorbance at 600 nm of each well was measured with a microplate reader.
Degree of growths of both of the transformed budding yeasts cultured in the presence of Compounds (1) to (7) and budding yeast as a control therefor are shown in Table 3. Degrees of growths of both of the transformed budding yeasts and budding yeast as a control thereof or are shown by a relative value in percentage, letting the absorbance of 600 nm at the concentration of the Compound of 0 ppm to be […]. It was confirmed that an inhibiting degree of growth of TM182-HIK1 by each test substance was greater than an inhibiting degree of growth of AH22-HIK1 by each test substance, and the TM182-HIK1 was a transformed cell with the enhanced sensitivity to an antifungal-compound as compared with AH22-HIK1.

In the case of `CC12CC1(C)C(=O)N(c1cc(Cl)cc(Cl)c1)C2=O` (stereo not drawn) [Compound (1), Procymidone], the “Degree of growth of budding yeast TM182-StOS1 Gal-Ura-Leu medium” value ([1]; final concentration 0.6 ppm) is reported as 101%, the “Degree of growth of budding yeast TM182-StOS1 Gul-Ura-Leu medium” value ([1]; final concentration 0.6 ppm) is reported as 67% and the “Degree of growth of budding yeast (%) AH22-HIK1 Glu-Leu medium” value (“Degree … (%) AH22-HIK1 Glu-Leu medium” below) ([2]; final concentration 2.0 ppm) is reported as 89%.

With `CC(C)NC(=O)N1CC(=O)N(c2cc(Cl)cc(Cl)c2)C1=O` [Compound (2), Iprodione] the “Degree of growth of budding yeast TM182-StOS1 Gal-Ura-Leu medium” value ([1]; final concentration 0.6 ppm) was 97%, the “Degree of growth of budding yeast TM182-StOS1 Gul-Ura-Leu medium” value ([1]; final concentration 0.6 ppm) was 23% and the “Degree … (%) AH22-HIK1 Glu-Leu medium” value ([2]; final concentration 2.0 ppm) was 84%.

For `C=CC1(C)OC(=O)N(c2cc(Cl)cc(Cl)c2)C1=O` (stereo not drawn) [Compound (3), Vinclozolin], the “Degree of growth of budding yeast TM182-StOS1 Gal-Ura-Leu medium” value ([1]; final concentration 0.6 ppm) was 94%, the “Degree of growth of budding yeast TM182-StOS1 Gul-Ura-Leu medium” value ([1]; final concentration 0.6 ppm) was 19% and the “Degree … (%) AH22-HIK1 Glu-Leu medium” value ([2]; final concentration 2.0 ppm) was 104%.

For `O=[N+]([O-])c1c(Cl)c(Cl)c(Cl)c(Cl)c1Cl` [Compound (4), Quintozene], the “Degree of growth of budding yeast TM182-StOS1 Gal-Ura-Leu medium” value ([1]; final concentration 20 ppm) was 99%, the “Degree of growth of budding yeast TM182-StOS1 Gul-Ura-Leu medium” value ([1]; final concentration 20 ppm) was 7% and the “Degree … (%) AH22-HIK1 Glu-Leu medium” value ([2]; final concentration 6.0 ppm) was 92%.

In the case of `COP(=S)(OC)Oc1c(Cl)cc(C)cc1Cl` [Compound (5), Tolclofos-methyl], the “Degree of growth of budding yeast TM182-StOS1 Gal-Ura-Leu medium” value ([1]; final concentration 20 ppm) is reported as 74%, the “Degree of growth of budding yeast TM182-StOS1 Gul-Ura-Leu medium” value ([1]; final concentration 20 ppm) is reported as 6% and the “Degree … (%) AH22-HIK1 Glu-Leu medium” value ([2]; final concentration 6.0 ppm) is reported as 99%.

`N#Cc1c[nH]cc1-c1cccc2c1OC(F)(F)O2` [Compound (6), Fludioxonil] was tested, and the “Degree of growth of budding yeast TM182-StOS1 Gal-Ura-Leu medium” value ([1]; final concentration 0.2 ppm) was 97%, the “Degree of growth of budding yeast TM182-StOS1 Gul-Ura-Leu medium” value ([1]; final concentration 0.2 ppm) was 6% and the “Degree … (%) AH22-HIK1 Glu-Leu medium” value ([2]; final concentration 0.2 ppm) was 98%.

In the case of `N#Cc1c[nH]cc1-c1cccc(Cl)c1Cl` [Compound (7), Fenpiclonil], the “Degree of growth of budding yeast TM182-StOS1 Gal-Ura-Leu medium” value ([1]; final concentration 0.2 ppm) is reported as 91%, the “Degree of growth of budding yeast TM182-StOS1 Gul-Ura-Leu medium” value ([1]; final concentration 0.2 ppm) is reported as 9% and the “Degree … (%) AH22-HIK1 Glu-Leu medium” value ([2]; final concentration 0.2 ppm) is reported as 102%.
